Measurements as given in US20100029600A1, “DIHYDRO-TRITERPENES IN THE TREATMENT OF VIRAL INFECTIONS, CARDIOVASCULAR DISEASE, INFLAMMATION, HYPERSENSITIVITY OR PAIN” (priority 2001, published 2010).

Assays:
[1] = tested on: carrageenin-induced paw oedema; assay: Carrageenin-induced paw oedema test in the rat, oral; type: in vivo; settings: 150 mg/kg oral, p<0.05
Experimental: Carrageenin, the phlogistic agent of choice for testing antiinflammatory drugs, is a mucopolysaccharide derived from Irish sea moss, Chondrus. Ibuprofen is used as a positive control.
The test article is the composition according to the invention described in example 1 further modified so that the dihydro-triterpenes are predominantly in the form of fatty acid esters (Compound 2). Ibuprofen is obtained from Astion A/S, Denmark. The test article is dissolved in peanut oil, which is used as vehicle.
The study is performed in male SPF Sprague Dawley rats of the stock Mol:SPRD from M & B A/S, Tornbjergvej 40, DK-4623 Lille Skensved. At start of the acclimatisation period the rats are in the weight range of 80-100 g.
The test articles or vehicle are administered orally by gavage in volumes of 20 ml per kg body weight, 0-5 minutes before injection of carrageenin into the foot.
Carrageenin (from Sigma) is prepared as a 1% suspension in sterile 0.9% NaCl-solution. A volume of 0.1 ml is injected through a 25-gauge needle into the plantar tissue of the right hind paw of the rats within 5 minutes after treatment with the test articles.
Immediately before the dosing and carrageenin injection and three and five hours later the foot volume is measured using a plethysmometer LE 7500 from Letica Scientific Instruments, Spain.

[2] = tested on: TPA induced ear inflammation; assay: TPA (phorbolester) induced ear oedema test in the mouse, topical; type: in vivo; settings: 0.02 mg per application topical; 3 h after TPA; p<0.05

SMILES	inhibition of paw oedema ([1]; after five hours) [%]	inhibition of paw oedema ([1]; after three hours) [%]	inhibition of ear swelling [2] [%]
CC(C)Cc1ccc(C(C)C(=O)O)cc1 (stereo not drawn) [ibuprofen, Ibuprofen]	88	81	
CCCC(=O)O[C@]1(C(=O)CO)CC[C@H]2[C@@H]3CCC4=CC(=O)CC[C@]4(C)[C@H]3[C@@H](O)C[C@@]21C [Hydrocortisone 17-butyrate, hydrocortisone 17-butyrate]			90
